In EP0428423A2, “Aryloxy alkyl benzenes, processes for their preparation and pharmaceutical compositions containing them” (LIPHA S.A., priority 1989, dated 1991):
Where two headings read alike, the source gives them in different places.

Assays:
[1] = test system: RAT; assay: Diuretic activity in the rat (hourly urine volume, sodium and potassium assay); format: in vivo; settings: po; R = RAT; diuretic activity; read-out: Dose minimale active
Excerpt: (§1) d'urine sont déterminés toutes les heures. Le dosage de sodium et du potassium est effectué par spectrophotométrie.

[2] = test system: SOURIS; assay: Diuretic activity in the mouse (hourly urine volume, sodium and potassium assay); format: in vivo; settings: S = SOURIS; for minimal effective dose: Mus musculus, po, diuretic activity, read-out: Dose minimale active
Excerpt: as §1

[3] = test system: plasmas riches en plaquettes provenant de sang de rat; assay: Platelet anti-aggregation in vitro, ADP-induced (Born aggregometer); format: cell-based; settings: in vitro, aggregating agent ADP, rat platelet-rich plasma, 37°; M not defined in the text; mM printed only in the TICLOPIDINE line; read-out: M à 50
Procedure: Les études ont été réalisées sur des plasmas riches en plaquettes provenant de sang de rat, l'agrégation étant induite par addition d'acide Adénosine diphosphorique. Les courbes néphélométriques d'agrégation sont obtenues en utilisant un agrégomètre de type BORN, le plasma étant placé en incubation à 37° avec agitation continue de 1100 t/mn (cf. BORN G.V.R et CROSS J. - J. Physiol. 168 (1962) 178.

[4] = target: T1, COTRANSPORT Na-K (Homo sapiens, UniProt P55011); assay: Na-K cotransport of human erythrocytes; format: cell-based, ERYTHROCYTES HUMAINS
T1 construct: systèmes de transport du sodium et du potassium des érythrocytes humains; endogenous in cells; host or cells: human erythrocytes
T1 sequence (P55011 1-1212): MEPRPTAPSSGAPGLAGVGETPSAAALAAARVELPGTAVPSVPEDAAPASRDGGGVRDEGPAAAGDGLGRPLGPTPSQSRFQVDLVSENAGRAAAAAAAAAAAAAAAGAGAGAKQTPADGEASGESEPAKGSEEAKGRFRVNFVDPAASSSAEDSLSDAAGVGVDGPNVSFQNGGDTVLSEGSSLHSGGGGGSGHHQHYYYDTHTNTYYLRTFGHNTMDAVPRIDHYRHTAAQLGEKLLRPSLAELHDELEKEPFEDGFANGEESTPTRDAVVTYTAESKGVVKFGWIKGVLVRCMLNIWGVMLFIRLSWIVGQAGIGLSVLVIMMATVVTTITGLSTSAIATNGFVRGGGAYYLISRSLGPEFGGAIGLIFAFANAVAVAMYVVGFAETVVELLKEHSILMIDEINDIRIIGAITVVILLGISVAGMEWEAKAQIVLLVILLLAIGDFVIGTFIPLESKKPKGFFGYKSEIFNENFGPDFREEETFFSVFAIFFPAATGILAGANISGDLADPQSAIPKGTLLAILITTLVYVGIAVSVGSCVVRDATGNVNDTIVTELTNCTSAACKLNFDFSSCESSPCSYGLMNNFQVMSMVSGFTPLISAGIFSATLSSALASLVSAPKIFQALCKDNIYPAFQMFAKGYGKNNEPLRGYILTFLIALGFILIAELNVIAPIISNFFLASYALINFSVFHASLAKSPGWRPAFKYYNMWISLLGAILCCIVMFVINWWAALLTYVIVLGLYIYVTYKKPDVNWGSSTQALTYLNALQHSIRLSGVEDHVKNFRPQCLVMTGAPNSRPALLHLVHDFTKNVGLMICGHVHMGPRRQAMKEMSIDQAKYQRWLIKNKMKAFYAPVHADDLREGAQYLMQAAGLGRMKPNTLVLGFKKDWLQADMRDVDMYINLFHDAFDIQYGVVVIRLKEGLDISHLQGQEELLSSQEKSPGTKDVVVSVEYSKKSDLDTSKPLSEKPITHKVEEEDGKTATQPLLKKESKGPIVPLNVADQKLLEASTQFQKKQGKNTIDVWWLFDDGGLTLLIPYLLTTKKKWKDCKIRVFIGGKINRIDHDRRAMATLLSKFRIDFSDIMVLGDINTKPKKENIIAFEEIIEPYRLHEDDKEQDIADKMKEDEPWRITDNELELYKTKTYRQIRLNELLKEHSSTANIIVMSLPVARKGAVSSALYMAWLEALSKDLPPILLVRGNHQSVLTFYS
Excerpt: Cet effet a été étudié selon la méthodologie décrite par G. GARAY et coll. dans Naunyn-Schmidberg's Arch. Pharmakol. […] Pharm.

[5] = target: T2, ECHANGEUR D'ANIONS (Homo sapiens, UniProt P02730); assay: Anion exchanger of human erythrocytes; format: cell-based, ERYTHROCYTES HUMAINS; settings: read-out: EFFET SUR L'ECHANGEUR D'ANIONS IC 50
T2 construct: systèmes de transport du sodium et du potassium des érythrocytes humains; endogenous in cells; host or cells: human erythrocytes
T2 sequence (P02730 1-911): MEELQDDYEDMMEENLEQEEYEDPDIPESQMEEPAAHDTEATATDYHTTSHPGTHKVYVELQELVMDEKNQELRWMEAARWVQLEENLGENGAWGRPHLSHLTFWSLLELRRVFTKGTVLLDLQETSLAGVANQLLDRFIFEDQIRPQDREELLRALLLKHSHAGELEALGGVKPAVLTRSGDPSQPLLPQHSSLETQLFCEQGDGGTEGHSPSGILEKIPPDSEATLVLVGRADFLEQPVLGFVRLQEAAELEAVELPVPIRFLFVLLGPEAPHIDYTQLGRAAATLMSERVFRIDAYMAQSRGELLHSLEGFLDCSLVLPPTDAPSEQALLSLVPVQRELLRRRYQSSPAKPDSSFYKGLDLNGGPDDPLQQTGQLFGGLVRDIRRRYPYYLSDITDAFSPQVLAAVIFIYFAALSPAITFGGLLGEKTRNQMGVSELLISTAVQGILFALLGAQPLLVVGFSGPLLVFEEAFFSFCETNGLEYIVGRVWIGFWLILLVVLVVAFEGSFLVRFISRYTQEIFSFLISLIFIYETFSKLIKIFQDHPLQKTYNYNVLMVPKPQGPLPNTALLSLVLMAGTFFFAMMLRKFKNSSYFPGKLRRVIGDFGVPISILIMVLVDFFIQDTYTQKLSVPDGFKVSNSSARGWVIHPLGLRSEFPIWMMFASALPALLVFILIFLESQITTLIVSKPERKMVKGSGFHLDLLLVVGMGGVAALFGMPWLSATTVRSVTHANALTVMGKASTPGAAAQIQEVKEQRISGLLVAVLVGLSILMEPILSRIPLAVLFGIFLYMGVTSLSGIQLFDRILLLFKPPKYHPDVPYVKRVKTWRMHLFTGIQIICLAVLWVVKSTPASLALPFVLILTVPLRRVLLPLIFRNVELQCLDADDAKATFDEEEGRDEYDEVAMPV
Excerpt: Cet effet a été étudié selon la méthodologie décrite par G. GARAY et coll. dans Naunyn-Schmidberg's Arch. Pharmakol. 334 (1986) 202-209 et dans Bioch. Pharm. 33 (1984) 2013-2020.

[6] = test system: rats mâles SHR (souche OKAMOTO); assay: Antihypertensive action in the non-anaesthetised SHR rat (systolic blood pressure, sphygmomanometric method); format: in vivo; settings: 60 mg/kg PO, acute or chronic not given, 24 h after dosing
Excerpt: L'étude a été effectuée sur des lots de rats mâles SHR (souche OKAMOTO) âgés de 16 semaines. La pression artérielle systolique est déterminée par la méthode sphygmomanométrique (électro sphygmogra- phe NARCO biosystems type PE 300). Les mesures de tension sont réalisées 24 heures après administration d'un composé de formule générale I, la pression artérielle systolique est calculée à partir de la moyenne de 6 à 8 mesures.

[7] = human erythrocytes, read-out: EFFET SUR LE COTRANSPORT Na-K IC 50
[8] = PO, at the dose (minimal active dose)

Compound	IC50 [3]	IC50 [4, 7]	IC50 [5]	minimal effective dose [1]	other results
Oc1ccc(Oc2ccccc2)cc1CCOc1ccc(F)cc1 [Ex 100]	1.1 mM				
CC(C)(C)c1ccc(O)c(CCOc2ccc(F)cc2)c1 [Ex 52]	0.75 mM				
Oc1ccc(O)c(CCOc2ccc(F)cc2)c1 [Ex 102]	0.7 mM				
CCOC(=O)c1ccc(OCCc2ccccc2O)cc1 [Ex 90]	0.5 mM				
CC(=O)Oc1c(CCOc2ccc(F)cc2)cccc1C(C)C [Ex 81]	1 mM				
NS(=O)(=O)c1cc2c(cc1Cl)NCNS2(=O)=O [HYDROCHLOROTHIAZIDE]					Variation de l'effet anti-hyper-tenseur 24 heures après produit [6]: FUROSEMIDE non actif HYDROCHLOROTHIAZIDE non actif
C=CCOc1ccc(CCOc2ccccc2)c(O)c1 [Ex 64]	0.5 mM				
CCCCNc1cc(C(=O)O)cc(S(N)(=O)=O)c1Oc1ccccc1 [BUMETANIDE, reference compound]			300 µM		IC50 [4]: 0.66 µM

Second part, led by results:

IC50 [3]	IC50 [4, 7]	IC50 [5]	Compound	minimal effective dose [1]	other results
0.95 mM	~400 µM	75 µM	CC(COc1ccc(F)cc1)c1ccccc1O (centres unmarked) [ex 172]	25 mg/kg	minimal effective dose [2]: 100 mg/kg
1.2 mM	40 µM	12 µM	Oc1ccc(O)c(CCOc2ccccc2)c1 [ex 42]	12 mg/kg	Pouvoir diurétique en % [2, 8]: Inactif; Rapport Na/K en % [2, 8]: Inactif
0.8 mM	170 µM	4 µM	Oc1ccccc1CCOc1ccc(F)cc1 [ex 30]	12 mg/kg	minimal effective dose [2]: 25 mg/kg
	70 µM	40 µM	COc1ccc(O)c(CCOc2ccc(Cl)cc2)c1 [ex 26]	50 mg/kg	minimal effective dose [2]: 100 mg/kg
0.4 mM			Oc1cccc(CCOc2ccc(F)cc2)c1 [Ex 174]		
	> 600 µM	120 µM	COc1ccc(OC(C)=O)c(CCOc2ccc(F)cc2)c1 [ex 25]	12 mg/kg	minimal effective dose [2]: 25 mg/kg
		25 µM	Cc1cccc(C)c1NC(=O)c1cc(S(N)(=O)=O)c(Cl)cc1O [XIPAMIDE, reference compound]		
